Source: article PMC7338124, “Characterization of neuraminidase inhibitor-resistant influenza virus isolates from immunocompromised patients in the Republic of Korea” (Virology Journal, 2020)

Assays:
[1] = test system: 2018–2019 isolates A(H3N2) neuraminidase, Wild; format: biochemical, influenza A(H3N2) virus
[2] = test system: 2018–2019 isolates B neuraminidase, Wild; format: biochemical, influenza B virus
[3] = test system: 2018–2019 isolates A(H1N1)pdm09 neuraminidase, Wild; format: biochemical, influenza A(H1N1)pdm09 virus
[4] = test system: A/Korea/S0002/2019 A(H1N1)pdm09 neuraminidase, Variant (H275Y); format: biochemical, influenza A(H1N1)pdm09 virus
[5] = test system: A/Korea/S0003/2019 A(H1N1)pdm09 neuraminidase, Variant (H275Y); format: biochemical, influenza A(H1N1)pdm09 virus

SMILES	NAI resistance (IC50 fold change) [1]	NAI resistance (IC50 fold change) [2]	NAI resistance (IC50 fold change) [3]	NAI resistance (IC50 fold change) [4]	Susceptibility to NAI (in words) [4]	NAI resistance (IC50 fold change) [5]	Susceptibility to NAI (in words) [5]
CCC(CC)[C@H](NC(C)=O)[C@@H]1[C@H](O)[C@@H](C(=O)O)C[C@H]1N=C(N)N [Peramivir]	0.2–0.3 fold	0.3–0.4 fold	0.1 fold	–	–	–	–
CC(=O)N[C@H]1[C@H]([C@H](O)[C@H](O)CO)OC(C(=O)O)=C[C@@H]1N=C(N)N [Zanamivir]	0.4–0.8 fold	0.7–1.6 fold	0.3–0.7 fold	NI 0.44 fold	normally susceptible	NI 2.56 fold	normally susceptible
CCOC(=O)C1=C[C@@H](OC(CC)CC)[C@H](NC(C)=O)[C@@H](N)C1 [Oseltamivir]	0.1–0.2 fold	–	0.1–1.2 fold	–	–	–	–
